Results on 1 molecule are retold here after US20090163696A1, “METHOD FOR PREPARING LYSOBACTIN DERIVATIVES” (priority 2006, published 2009).

This assay deals with Staphylococcus aureus 133, Entercococcus faecalis ICB27159 and Streptococcus pneumoniae G9a. In words: Determination of the minimum inhibitory concentration (MIC), liquid dilution test. Type of assay: cell-based. The conditions noted are these: lysobactin prepared by complete synthesis compared with fermented lysobactin. The procedure: The in vitro effect of the compounds of the invention can be shown in the following assay: Determination of the Minimum Inhibitory Concentration (MIC): The MIC is determined in the liquid dilution test in accordance with the NCCLS guidelines. Overnight cultures of Staphylococcus aureus 133, Entercococcus faecalis ICB27159 and Streptococcus pneumoniae G9a are incubated with the described test substances in a 1:2 dilution series. The MIC determination is carried out with a cell count of 10^5 microbes per ml in Isosensitest medium (Difco, Irvine/USA), with the exception of S. pneumoniae, which is tested in BHI broth (Difco, Irvine/USA) with 10% bovine serum at a cell count of 10^6 microbes per ml. The cultures are incubated at 37° C. for 18-24 hours, S. pneumoniae in the presence of 10% CO2. The MIC is defined as the lowest concentration of each substance at which no visible bacterial growth occurs any longer. The MIC values are reported in μg/ml.

*1 amine or outer side, *2 acyl side, *3 side chain or, on linkers, in order; H or OH if unused. Where a SMILES comes first, the peptide text is derived from it. Bridges are numbered along the chain shown (N, C = ends). [ ]: non-standard residue; d: D form. ξ: configuration not given here. Phe(3R-OH) = O=C([C@@H](N[*:1])[C@H](O[*:3])c1ccccc1)[*:2]; Asn(3S-OH) = NC(=O)[C@@H](O)[C@H](N)C(=O)O; Leu(3R-OH) = CC(C)[C@@H](O)[C@H](N)C(=O)O; aThr = C[C@H](O)[C@H](N)C(=O)O; ξS = NC(CO)C(=O)O

For the molecule `CC[C@H](C)[C@@H]1NC(=O)[C@@H](CCCNC(=N)N)NC(=O)[C@H](CC(C)C)NC(=O)[C@H]([C@H](O)C(C)C)NC(=O)[C@@H](NC(=O)[C@H](CC(C)C)NC(=O)[C@H](N)CC(C)C)[C@@H](c2ccccc2)OC(=O)C(CO)NC(=O)[C@H]([C@H](O)C(N)=O)NC(=O)CNC(=O)[C@H]([C@H](C)O)NC1=O` (stereo partly drawn) [lysobactin, Lysobactin Bistrifluoroacetate] (H-[dL]L[Phe(3R-OH)][Leu(3R-OH)]L[dR]I[aThr]G[Asn(3S-OH)][ξS]; ester 3-C), the “physiological activity (MIC)” value is on record as “No significant differences”.
